Values joined by “and” are separate entries in the source; they are usually repeats but may differ in a detail not shown here. Equal values may be shown once.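 Step 1: Grow cells in 96-well plates. Step 2: Expose to compound for 48 hours at 5 concentrations. Step 3: Interpolate endpoints linearly; if unreached, use highest concentration. GI50 marks 50% less growth. TGI: concentration producing complete growth inhibition.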
What was measured:
Assay in all cases: inhibition of tumour cell growth, NCI panel, 48 h
K-562 leukemia = system: K-562 leukemia
SK-MEL-28 melanoma = system: SK-MEL-28 melanoma
SNB-75 CNS = system: SNB-75 CNS
BT-549 breast = system: BT-549 breast
HCC-2998 colon = system: HCC-2998 colon
KM12 colon = system: KM12 colon
HCT-116 colon = system: HCT-116 colon
HOP-62 NSCLC = system: HOP-62 NSCLC
A498 renal = system: A498 renal
NCI/ADR-RES ovarian = system: NCI/ADR-RES ovarian

## COC(=O)[C@]12CC[C@@H](C)[C@H](C)[C@@H]1C1=CC[C@@H]3[C@@]4(C)C=C(O)C(=O)C(C)=C4CC[C@@]3(C)[C@]1(C)CC2
K-562 leukemia
  GI50: 14.3 µM
  TGI: 39.2 µM
SK-MEL-28 melanoma
  GI50: 15.8 µM
  TGI: 34 µM
SNB-75 CNS
  GI50: 13.9 µM
  TGI: 31.3 µM
BT-549 breast
  GI50: 15.5 µM
  TGI: 37.4 µM
HCC-2998 colon
  GI50: 8.6 µM
  TGI: 23.3 µM
KM12 colon
  GI50: 7.72 µM
  TGI: 21.8 µM
HCT-116 colon
  GI50: 6.03 µM
  TGI: 20.6 µM
HOP-62 NSCLC
  GI50: 18 µM
  TGI: 35.9 µM
A498 renal
  GI50: 19.5 µM
  TGI: 34.1 µM
NCI/ADR-RES ovarian
  GI50: 12.7 µM
  TGI: 31.7 µM

## CN1CCN(c2cc(Nc3cc(C4CC4)[nH]n3)nc(Nc3ccc(CC(=O)NCc4cccc(F)c4)cc3)n2)CC1
K-562 leukemia
  GI50: 0.423 µM
  TGI: 11.6 µM
SK-MEL-28 melanoma
  GI50: 0.971 µM
  TGI: 2.46 µM
SNB-75 CNS
  GI50: 0.168 µM
  TGI: 0.778 µM
BT-549 breast
  GI50: 2.96 µM
  TGI: 19.9 µM
HCC-2998 colon
  GI50: 1.15 µM
  TGI: 12.1 µM
KM12 colon
  GI50: 0.0671 µM
  TGI: 12.1 µM
HCT-116 colon
  GI50: 0.211 µM
  TGI: 6.87 µM
HOP-62 NSCLC
  GI50: 0.754 µM
  TGI: 14.4 µM
A498 renal
  GI50: 0.143 µM
  TGI: 0.967 µM
NCI/ADR-RES ovarian
  GI50: 18.8 µM
  TGI: > 100 µM

## CCN1CCCCC(=N\O)/C(=N/O)CCCC1
SK-MEL-28 melanoma
  TGI: > 100 µM
SNB-75 CNS
  TGI: > 100 µM
BT-549 breast
  TGI: > 100 µM
KM12 colon
  TGI: > 100 µM
HCT-116 colon
  TGI: > 100 µM
HOP-62 NSCLC
  TGI: > 100 µM
A498 renal
  TGI: > 100 µM
NCI/ADR-RES ovarian
  TGI: > 100 µM

## CC(C)(C)c1nnc2n(c1=O)N=CC(c1ccc(Br)cc1)S2 (centres undefined)
K-562 leukemia
  GI50: 26.5 µM
  TGI: > 100 µM
SK-MEL-28 melanoma
  GI50: 34.2 µM
  TGI: > 100 µM
SNB-75 CNS
  GI50: 21.5 µM
  TGI: 96.6 µM
BT-549 breast
  GI50: 24.3 µM
  TGI: 74.7 µM
HCC-2998 colon
  GI50: 26.3 µM
  TGI: 56.7 µM
KM12 colon
  GI50: 26.1 µM
  TGI: > 100 µM
HCT-116 colon
  GI50: 23.9 µM
  TGI: 50.9 µM
HOP-62 NSCLC
  GI50: 37.5 µM
  TGI: > 100 µM
NCI/ADR-RES ovarian
  GI50: 26.4 µM
  TGI: 61.6 µM

## COc1cc2c3c(n(CCCNCCN4CCOCC4)c(=O)c2cc1OC)-c1cc2c(cc1C3=O)OCO2
K-562 leukemia
  GI50: 7.72 µM
  TGI: > 67.1 µM
SNB-75 CNS
  GI50: 13.6 µM and 3.69 µM
  TGI: 50 µM and 9.87 µM
BT-549 breast
  GI50: 7.64 µM and 7.01 µM
  TGI: 16.6 µM and 29.5 µM
KM12 colon
  GI50: 0.554 µM and 1.48 µM
  TGI: 1.6 µM and 4.69 µM
HCT-116 colon
  GI50: < 0.005 µM
  TGI: 0.0975 µM
HOP-62 NSCLC
  TGI: 0.79 µM and 1.93 µM
A498 renal
  GI50: 4.1 µM and 16 µM
  TGI: 11.4 µM and 35.8 µM
NCI/ADR-RES ovarian
  GI50: 0.11 µM
  TGI: 0.69 µM

## O=[N+]([O-])c1ccc2c(c1)S(=O)c1ccccc1-2 (centres undefined)
K-562 leukemia
  TGI: > 100 µM
SK-MEL-28 melanoma
  TGI: > 100 µM
SNB-75 CNS
  TGI: > 100 µM
BT-549 breast
  TGI: > 100 µM
KM12 colon
  TGI: > 100 µM
HCT-116 colon
  TGI: > 100 µM
HOP-62 NSCLC
  TGI: > 100 µM
A498 renal
  TGI: > 100 µM
NCI/ADR-RES ovarian
  TGI: > 100 µM

## COP1(=S)OCC2CCC[C@@H]2O1 (some centres undefined)
K-562 leukemia
  TGI: > 100 µM
SK-MEL-28 melanoma
  TGI: > 100 µM
SNB-75 CNS
  TGI: > 100 µM
BT-549 breast
  TGI: > 100 µM
HCC-2998 colon
  TGI: > 100 µM
KM12 colon
  TGI: > 100 µM
HCT-116 colon
  TGI: > 100 µM
A498 renal
  TGI: > 100 µM
NCI/ADR-RES ovarian
  TGI: > 100 µM

## Cc1ccc(-n2c(-c3ccc(Cl)cc3)cs/c2=N\NC(=O)COc2n[nH]c(=O)c3ccccc23)cc1
K-562 leukemia
  GI50: > 100 µM
  TGI: > 100 µM
SK-MEL-28 melanoma
  GI50: > 100 µM
  TGI: > 100 µM
SNB-75 CNS
  GI50: 20.7 µM
  TGI: 65.9 µM
BT-549 breast
  GI50: > 100 µM
  TGI: > 100 µM
KM12 colon
  GI50: > 100 µM
  TGI: > 100 µM
HOP-62 NSCLC
  GI50: 51.8 µM
  TGI: > 100 µM
A498 renal
  GI50: > 100 µM
  TGI: > 100 µM
NCI/ADR-RES ovarian
  GI50: > 100 µM
  TGI: > 100 µM

## OC(C(=Nc1ccccc1)c1ccccc1)c1ccccc1 (centres undefined)
K-562 leukemia
  TGI: > 100 µM
SK-MEL-28 melanoma
  TGI: 15.2 µM
SNB-75 CNS
  TGI: 25.4 µM
BT-549 breast
  TGI: 9.51 µM
KM12 colon
  TGI: 10.4 µM
HCT-116 colon
  TGI: 31.8 µM
HOP-62 NSCLC
  TGI: 39.8 µM
A498 renal
  TGI: 33.6 µM
NCI/ADR-RES ovarian
  TGI: 65.7 µM

## O=C(Nc1ccccc1F)c1ccc(NC2=C(Cl)C(=O)N(Cc3ccccc3)C2=O)cc1
K-562 leukemia
  GI50: 2.68 µM
  TGI: 12.1 µM
SK-MEL-28 melanoma
  GI50: 3.88 µM
  TGI: 13.5 µM
SNB-75 CNS
  GI50: 16.5 µM
  TGI: 30 µM
BT-549 breast
  GI50: 3.13 µM
  TGI: 9.62 µM
HCC-2998 colon
  GI50: 15.7 µM
  TGI: 29.1 µM
KM12 colon
  GI50: 14.8 µM
  TGI: 34.3 µM
HCT-116 colon
  GI50: 8.4 µM
  TGI: 20.6 µM
A498 renal
  GI50: 16.6 µM
  TGI: 30.2 µM
NCI/ADR-RES ovarian
  GI50: 11.5 µM
  TGI: 23.6 µM

## N#Cc1ccc2oc3ccc(C#N)cc3c(=O)c2c1
K-562 leukemia
  TGI: > 100 µM
SK-MEL-28 melanoma
  TGI: 36.7 µM
SNB-75 CNS
  TGI: 58.6 µM
BT-549 breast
  TGI: 53.7 µM
HCC-2998 colon
  TGI: > 100 µM
KM12 colon
  TGI: > 100 µM
HCT-116 colon
  TGI: > 100 µM
A498 renal
  TGI: 28.9 µM
NCI/ADR-RES ovarian
  TGI: > 100 µM

## CC(C)(CCC(C)(C)c1ccccc1)c1ccccc1
K-562 leukemia
  TGI: 61.2 µM
SK-MEL-28 melanoma
  TGI: 42.7 µM
SNB-75 CNS
  TGI: 36.7 µM
BT-549 breast
  TGI: 37.2 µM
KM12 colon
  TGI: 30.6 µM
HCT-116 colon
  TGI: 29.4 µM
HOP-62 NSCLC
  TGI: 35.4 µM
A498 renal
  TGI: 33.2 µM
NCI/ADR-RES ovarian
  TGI: 36.9 µM

## Nc1c(O)c(S(=O)(=O)O)c(O)c2c1C(=O)c1ccccc1C2=O
K-562 leukemia
  GI50: 3.13 µM
  TGI: 13.9 µM
SK-MEL-28 melanoma
  GI50: 4.09 µM
  TGI: > 100 µM
BT-549 breast
  GI50: 2.78 µM
  TGI: 8.94 µM
HCC-2998 colon
  GI50: 2.84 µM
  TGI: 32.8 µM
KM12 colon
  GI50: 2.94 µM
  TGI: 12.8 µM
HCT-116 colon
  GI50: 2.78 µM
  TGI: 10.9 µM
HOP-62 NSCLC
  GI50: 2.92 µM
  TGI: > 100 µM
A498 renal
  GI50: 2.33 µM
  TGI: 7.53 µM
NCI/ADR-RES ovarian
  GI50: 2.99 µM
  TGI: 13.9 µM

## CCCCC#Cc1cccc(=O)o1
SK-MEL-28 melanoma
  GI50: 18.3 µM
  TGI: > 100 µM
BT-549 breast
  GI50: > 100 µM
  TGI: > 100 µM
KM12 colon
  GI50: 37.1 µM
  TGI: > 100 µM
HCT-116 colon
  GI50: 5.34 µM
  TGI: 30.4 µM
HOP-62 NSCLC
  GI50: > 100 µM
  TGI: > 100 µM
A498 renal
  GI50: 9.83 µM
  TGI: 66.1 µM
NCI/ADR-RES ovarian
  GI50: 9.46 µM
  TGI: > 100 µM

## C#CC#CC#CC#CC#CC#CC#CC#CCC1OC[C@H](COC(=O)O[C@@H](C(=O)O[C@H]2C[C@@]3(O)[C@@H](OC(=O)c4ccccc4)[C@@H]4[C@]5(OC(C)=O)CO[C@@H]5C[C@H](O)[C@@]4(C)C(=O)[C@H](OC(C)=O)C(=C2C)C3(C)C)[C@@H](NC(=O)c2ccccc2)c2ccccc2)O1 (some centres undefined)
K-562 leukemia
  GI50: 0.255 µM
  TGI: > 33.3 µM
SNB-75 CNS
  GI50: 0.0727 µM
  TGI: 0.648 µM
BT-549 breast
  GI50: 1.01 µM
  TGI: > 33.3 µM
HCC-2998 colon
  GI50: 0.52 µM
  TGI: > 33.3 µM
KM12 colon
  GI50: 0.196 µM
  TGI: > 33.3 µM
HCT-116 colon
  GI50: 0.145 µM
  TGI: > 33.3 µM
HOP-62 NSCLC
  GI50: 1.37 µM
  TGI: > 33.3 µM
A498 renal
  GI50: 0.494 µM
  TGI: > 8.14 µM
NCI/ADR-RES ovarian
  GI50: > 33.3 µM
  TGI: > 33.3 µM

## CS(=O)(=O)CS(=O)CS(=O)CS(=O)CC(NC(=O)CCC(N)C(=O)O)C(=O)O (centres undefined)
K-562 leukemia
  TGI: > 100 µM
SK-MEL-28 melanoma
  TGI: > 100 µM
SNB-75 CNS
  TGI: > 100 µM
BT-549 breast
  TGI: > 100 µM
HCC-2998 colon
  TGI: > 100 µM
KM12 colon
  TGI: > 100 µM
HCT-116 colon
  TGI: > 100 µM
HOP-62 NSCLC
  TGI: > 100 µM
NCI/ADR-RES ovarian
  TGI: > 100 µM

— PubChem BioAssay (NCI)
